Measured values reported in patent US5760235A, “Anticoagulant peptide derivatives and pharmaceutical compositions containing the same as well as a process for preparation thereof” (Gyogyszerkutato Intezet Kft., priority 1992, dated 1998).

Tests used:
[1] = system: whole blood clotting; assay: In vivo antithrombin effect in rabbits: whole blood clotting time (WBCT)
Experimental: (§1) The in vivo antithrombin effect of the compounds of general formula (I) was treated in rabbits by a known method [Bagdy et al: Thromb Haemost 67, 357-365 (1992)]. The compounds were applied in a dose of 0.5-3.0 mg/kg s.c. and 5-15 mg/kg p.o. The effect was already detectable 15-30 minutes after drug administration, peak effect was attained after 90-120 minutes but the therapeutic effect was dose dependently maintained during 3 to longer than 5 hours.
(§2) The in vivo antithrombin effect of 3-cyclohexyl-D-lactyl-L-prolyl-L-arginine aldehyde hemisulfate (Example 7.) is presented in detail in Tables 2 and 3. The compound was administered in doses of 10 and 15 mg/kg, resp., p.o. and the blood samples taken from the ear-vein of the animals were assayed in every 30 minutes. The whole blood clotting time (WBCT) and the inhibition of whole blood platelet aggregation induced by thrombin (IWBA) were determined. Furthermore the citrated plasma thrombin time (TT) of the blood sample and the activated partial thromboplastin time (APTT) were measured, too. The WBCT and APTT values are presented in Table 2 and the TT and IWBA values in Table 3.

[2] = system: fibrinolysis induced by tissue plasminogen activator; assay: Fibrinolysis induced by tissue plasminogen activator, thromboelastogram; assay type: biochemical
Excerpt: The compounds of the general formula (I) inhibit clot formation without interfering with the natural lysis of blood clots in the body, e.g. fibrinolysis. […] Thromboelastography. In: Bang N. U., F. K. Beller, E. Deutsch, E. F. Mamman eds. Thrombosis and Bleeding Disorders. Theory and Methods. Academic Press, London, 1971: 70-76].

[3] = system: whole blood platelet aggregation induced by thrombin; assay: In vivo antithrombin effect in rabbits: inhibition of whole blood platelet aggregation induced by thrombin (IWBA)
Experimental: as §1, §2

[4] = system: citrated plasma; assay: In vivo antithrombin effect in rabbits: activated partial thromboplastin time (APTT)
Experimental: as §1, §2

[5] = system: citrated blood plasma; assay: In vitro activated partial thromboplastin time (APTT), citrated blood plasma; assay type: biochemical, human; design: unit not given here
Experimental: (§3) The antithrombin activity of the compounds of general formula (I) was determined by the usual method [Bagdy et al.: Thromb Haemostas 67, 325-330 (1992)] by measuring whole blood clotting time (WBCT), thrombin time (TT) and activated partial thromboplastin time (APTT). The in vitro activity of some compounds of the invention assayed on native human blood (non-anticoagulated clotting) (WBCT) and on citrated blood plasma (TT and APTT) is presented in Table 1.
(§4) ^2 WBCT = whole blood clotting time, TT = thrombin time, APTT =
(§5) activated partial thromboplastin time parameter. The figures represent
(§6) concentrations of the compounds required to double the clotting time of
(§7) native whole human blood or of citrated blood plasma.

[6] = system: citrated blood plasma; assay: In vitro thrombin time (TT), citrated blood plasma; assay type: biochemical, human; design: unit not given here
Experimental: as §3, §4, §5, §6, §7

[7] = system: citrated plasma; assay: In vivo antithrombin effect in rabbits: citrated plasma thrombin time (TT)
Experimental: as §1, §2

[8] = system: native whole human blood; assay: In vitro whole blood clotting time (WBCT), native human blood; assay type: biochemical; design: unit not given here
Experimental: as §3, §4, §5, §6, §7

## N=C(N)NCCC[C@@H](C=O)NC(=O)[C@@H]1CCCN1C(=O)[C@H](O)CC1CCCCC1.N=C(N)NCCC[C@@H](C=O)NC(=O)[C@@H]1CCCN1C(=O)[C@H](O)CC1CCCCC1.O=S(=O)(O)O [Example 7, 3-Cyclohexyl-D-lactyl-L-prolyl-L-arginine aldehyde hemisulfate]
[1]; 10 mg/kg p.o., time 0 min
  WBCT: 13.2 ± 1.1 min
[1]; 10 mg/kg p.o., time 30 min
  WBCT: 17.7 ± 1.6 min
[1]; 10 mg/kg p.o., time 60 min
  WBCT: 23.6 ± 1.9 min
[1]; 10 mg/kg p.o., time 90 min
  WBCT: 21.2 ± 2.9 min
[1]; 10 mg/kg p.o., time 120 min
  WBCT: 18.8 ± 1.0 min
[1]; 10 mg/kg p.o., time 150 min
  WBCT: 19.2 ± 1.1 min
[1]; 10 mg/kg p.o., time 180 min
  WBCT: 18.4 ± 1.5 min
[1]; 10 mg/kg p.o., time 210 min
  WBCT: 17.2 ± 2.3 min
[1]; 10 mg/kg p.o., time 240 min
  WBCT: 15.8 ± 1.7 min
[1]; 10 mg/kg p.o., time 270 min
  WBCT: 16.2 ± 2.1 min
[1]; 10 mg/kg p.o., time 300 min
  WBCT: 13.5 ± 0.9 min
[1]; 15 mg/kg p.o., time 0 min
  WBCT: 14.6 ± 0.4 min
[1]; 15 mg/kg p.o., time 30 min
  WBCT: 24.2 ± 4.7 min
[1]; 15 mg/kg p.o., time 60 min
  WBCT: 29.4 ± 4.5 min
[1]; 15 mg/kg p.o., time 90 min
  WBCT: 33.0 ± 5.9 min
[1]; 15 mg/kg p.o., time 120 min
  WBCT: 34.4 ± 4.4 min
[1]; 15 mg/kg p.o., time 150 min
  WBCT: 27.2 ± 3.6 min
[1]; 15 mg/kg p.o., time 180 min
  WBCT: 29.5 ± 2.7 min
[1]; 15 mg/kg p.o., time 210 min
  WBCT: 34.0 ± 5.9 min
[1]; 15 mg/kg p.o., time 240 min
  WBCT: 33.7 ± 6.5 min
[1]; 15 mg/kg p.o., time 270 min
  WBCT: 26.0 ± 1.2 min
[1]; 15 mg/kg p.o., time 300 min
  WBCT: 23.6 ± 3.3 min
[2]
  inhibitory effect on fibrinolysis induced by tissue plasminogen activator: only negligible inhibitory effect
[3]; 10 mg/kg p.o., time 30 min
  IWBA: 89.4 ± 7.6%
[3]; 10 mg/kg p.o., time 60 min
  IWBA: 95.8 ± 6.9%
[3]; 10 mg/kg p.o., time 90 min
  IWBA: 81.6 ± 8.2%
[3]; 10 mg/kg p.o., time 120 min
  IWBA: 94.0 ± 3.2%
[3]; 10 mg/kg p.o., time 150 min
  IWBA: 71.4 ± 13.8%
[3]; 10 mg/kg p.o., time 180 min
  IWBA: 72.4 ± 19.2%
[3]; 10 mg/kg p.o., time 210 min
  IWBA: 54.4 ± 21.0%
[3]; 10 mg/kg p.o., time 240 min
  IWBA: 50.6 ± 17.7%
[3]; 10 mg/kg p.o., time 270 min
  IWBA: 35.2 ± 17.3%
[3]; 10 mg/kg p.o., time 300 min
  IWBA: 48.2 ± 16.9%
[3]; 15 mg/kg p.o., time 30 min
  IWBA: 81.4%
[3]; 15 mg/kg p.o., time 60 min
  IWBA: 97.4%
[3]; 15 mg/kg p.o., time 90 min
  IWBA: 100.0 ± 0%
[3]; 15 mg/kg p.o., time 120 min
  IWBA: 100.0 ± 0%
[3]; 15 mg/kg p.o., time 150 min
  IWBA: 100.0 ± 0%
[3]; 15 mg/kg p.o., time 180 min
  IWBA: 100.0 ± 0%
[3]; 15 mg/kg p.o., time 210 min
  IWBA: 93.7%
[3]; 15 mg/kg p.o., time 240 min
  IWBA: 82.6%
[3]; 15 mg/kg p.o., time 270 min
  IWBA: 81.0%
[3]; 15 mg/kg p.o., time 300 min
  IWBA: 69.6%
[4]; 10 mg/kg p.o., time 0 min
  APTT: 27.7 ± 1.2 s
[4]; 10 mg/kg p.o., time 30 min
  APTT: 58.9 ± 9.0 s
[4]; 10 mg/kg p.o., time 60 min
  APTT: 77.6 ± 14.6 s
[4]; 10 mg/kg p.o., time 90 min
  APTT: 65.1 ± 8.4 s
[4]; 10 mg/kg p.o., time 120 min
  APTT: 55.1 ± 11.4 s
[4]; 10 mg/kg p.o., time 150 min
  APTT: 52.1 ± 6.6 s
[4]; 10 mg/kg p.o., time 180 min
  APTT: 53.8 ± 8.5 s
[4]; 10 mg/kg p.o., time 210 min
  APTT: 48.6 ± 3.8 s
[4]; 10 mg/kg p.o., time 240 min
  APTT: 47.7 ± 7.4 s
[4]; 10 mg/kg p.o., time 270 min
  APTT: 44.4 ± 3.7 s
[4]; 10 mg/kg p.o., time 300 min
  APTT: 43.7 ± 5.0 s
[4]; 15 mg/kg p.o., time 0 min
  APTT: 32.6 ± 4.6 s
[4]; 15 mg/kg p.o., time 30 min
  APTT: 115.0 ± 36.6 s
[4]; 15 mg/kg p.o., time 60 min
  APTT: 150.4 ± 30.9 s
[4]; 15 mg/kg p.o., time 90 min
  APTT: 170.3 ± 18.5 s
[4]; 15 mg/kg p.o., time 120 min
  APTT: 145.6 ± 22.7 s
[4]; 15 mg/kg p.o., time 150 min
  APTT: 149.2 ± 22.0 s
[4]; 15 mg/kg p.o., time 180 min
  APTT: 169.0 ± 23.0 s
[4]; 15 mg/kg p.o., time 210 min
  APTT: 137.7 ± 25.8 s
[4]; 15 mg/kg p.o., time 240 min
  APTT: 127.4 ± 25.7 s
[4]; 15 mg/kg p.o., time 270 min
  APTT: 133.4 ± 24.7 s
[4]; 15 mg/kg p.o., time 300 min
  APTT: 92.8 ± 18.4 s
[5]
  APTT: concentration required to double the clotting time: 0.20
[6]
  TT: concentration required to double the clotting time: 0.072
[7]; 10 mg/kg p.o., time 0 min
  TT: 18.4 ± 2.1 s
[7]; 10 mg/kg p.o., time 30 min
  TT: 317.1 ± 123.0 s
[7]; 10 mg/kg p.o., time 60 min
  TT: 416.0 ± 107.2 s
[7]; 10 mg/kg p.o., time 90 min
  TT: 444.7 ± 108.6 s
[7]; 10 mg/kg p.o., time 120 min
  TT: 264.6 ± 101.3 s
[7]; 10 mg/kg p.o., time 150 min
  TT: 201.1 ± 109.9 s
[7]; 10 mg/kg p.o., time 180 min
  TT: 182.7 ± 113.6 s
[7]; 10 mg/kg p.o., time 210 min
  TT: 123.0 ± 65.3 s
[7]; 10 mg/kg p.o., time 240 min
  TT: 141.5 ± 81.3 s
[7]; 10 mg/kg p.o., time 270 min
  TT: 65.4 ± 25.7 s
[7]; 10 mg/kg p.o., time 300 min
  TT: 41.8 ± 11.4 s
[7]; 15 mg/kg p.o., time 0 min
  TT: 18.9 ± 2.1 s
[7]; 15 mg/kg p.o., time 30 min
  TT: 371.2 ± 142.3 s
[7]; 15 mg/kg p.o., time 60 min
  TT: 528.3 ± 72.9 s
[7]; 15 mg/kg p.o., time 90 min
  TT: 578.8 ± 21.5 s
[7]; 15 mg/kg p.o., time 120 min
  TT: > 600.0 ± 0 s
[7]; 15 mg/kg p.o., time 150 min
  TT: 549.6 ± 34.0 s
[7]; 15 mg/kg p.o., time 180 min
  TT: 380.7 ± 116.0 s
[7]; 15 mg/kg p.o., time 210 min
  TT: 342.1 ± 121.2 s
[7]; 15 mg/kg p.o., time 240 min
  TT: 340.9 ± 137.0 s
[7]; 15 mg/kg p.o., time 270 min
  TT: 376.4 ± 153.0 s
[7]; 15 mg/kg p.o., time 300 min
  TT: 261.0 ± 140.8 s
[8]
  WBCT: concentration required to double the clotting time: 0.32
